Experiments:
[1] = target: T1, purified sickle cell hemoglobin (HbS) (Homo sapiens, UniProt P68871+P69905, E7V); assay: Binding affinity to purified HbS by Surface Plasmon Resonance (SPR); conditions: crosslinked biotinylated HbS, 1:1 binding model
T1 construct: HbS was obtained from the blood of homozygous S/S patients; from tissue; host or cells: red blood cells of homozygous S/S patients
Protocol: Binding Affinity, Kd (uM)
The binding affinity for compounds to purified sickle cell hemoglobin (HbS) was determined using Surface Plasmon Resonance (SPR). Patient Sickle Cell blood was obtained from Boston Children's Hospital in accordance with Institutional Review Board protocols. HbS was obtained from the blood of homozygous S/S patients, and purified using the method described in: Antonini and Brunori, Hemoglobin and Myoglobin in their Reactions with Ligands. Amsterdam, London, North-Holland Publishing Company, 1971. Whole blood was separated into red blood cell and plasma components by centrifugation, after which the plasma was decanted and discarded. Packed red blood cells were washed with normal saline (0.9% NaCl) and then lysed by 2:1 dilution with cold deionized water. The hemolysate was centrifuged to remove cellular debris, and further purified with the addition of Drabkin's Buffer (2.8 M potassium phosphate), and centrifugation with Celite®. Organic phosphates (2,3-BPG) were removed via gel filtration with Sephadex® G-25. HbS and wild-type hemoglobin, hemoglobin A (HbA), were separated by […], using diethylaminoethyl (DEAE)-Sepharose® fast flow, and eluted using a pH gradient from pH 8.5-pH 7.5. Purity of the resulting HbS and HbA was determined by native gel electrophoresis and HbS fractions used further.
To stabilize the tetrameric structure of hemoglobin, HbS was crosslinked between the beta subunits (Lys82-Lys82) using bis(3,5-dibromosalicyl) fumarate, as described in: Shibayama N. et al, J Am Chem Soc 2014, 136, 13, 5097-5105 and Shibayama N. et al, Biochemistry 1991, 39, 33, 8158-8165). Crosslinked HbS was subsequently biotynylated and captured on a custom made Streptavidin sensor to achieve protein density of 4000 to 5000 resonance units (RUs) on the surface. Compound binding to HbS using SPR was tested on Sierra Sensors MASS-1 instrument. The running buffer contained 100 mM Potassium Phosphate, pH 7.5, 0.005% Tween-20, 1 mM ethylenediaminetetraacetic acid (EDTA), 0.1 mg/mL bovine serum albumin with 1% DMSO. Compound samples were injected at a flow rate of 30 μL/min for 2 minutes association and at least 5 minutes of dissociation time. A 2- or 3-fold dilution series containing at least 4 concentrations were tested for each compound. The dose range was selected based on the activity of the compounds in biochemical assays, when available. Multiple blank injections of running buffer were run before and after each compound series to allow blank subtraction for compound data in the analysis software. Positive controls were run in each experiment to monitor and maintain the activity of HbS on the surface. A DMSO curve was run at the beginning of each data set to apply an excluded volume correction to the data during analysis. The data were processed and analyzed using Sierra Sensors and Scrubber 2.0 software. The binding affinities (dissociation constant Kd) were calculated by fitting the sensorgrams to a 1:1 binding model.

HbS = target: T2, HbS (Homo sapiens, UniProt P68871+P69905, E7V); assay: 'R'-'T' assay (conversion of oxy HbS to deoxy HbS under deoxygenating conditions); format: biochemical; conditions: 50% inhibition of HbS 'R'-'T' conversion; 3 uM HbS, <1% O2
T2 construct: HbS was obtained from the blood of homozygous S/S patients; from tissue; host or cells: red blood cells of homozygous S/S patients
Protocol: Conversion from oxy (R, relaxed state) to deoxy (T, tense state) HbS in the presence of compound was performed to determine the ability of compounds to stabilize the oxy (R) state under deoxygenating conditions. The assay run was similar to the ‘Oxygen dissociation assay’ described in Oksenberg et al, Br J Haematology, 2016, 175, 141-153.
Assay ready compound plates were prepared by first preparing a master serial dilution plate from a 30 mM initial compound stock in 100% DMSO. From this master serial dilution plate, 167 nL of the desired compound concentration was delivered to the assay ready plates using acoustical dispensing. Plates were frozen at −20° C. until needed. Purified HbS-O2 (i.e. oxy HbS) was diluted to 3 uM in 100 mM potassium phosphate buffer, pH=7.4. 50 uL of 3 uM stock solution was added to each well of the assay ready plate and mechanically mixed eight times. Following mixing the plates were covered and incubated at room temperature for one hour with moderate shaking. Following incubation, the plates were placed in a deoxygenated environment (<1% O2) for two hours, and the conversion to deoxy HbS monitored as a function of time. Oxygenated and deoxygenated forms of hemoglobin were detected using the absorbance of the Soret peaks at 415 and 430 nm respectively, and absorbance measurements (optical density, OD) were taken at 0, 90 and 120 minutes. Background absorbance for correction was collected at 700 nm.
Data were analyzed by first subtracting baseline absorbance at 700 nm from 415 nm and 430 nm data at each timepoint, and then taking the ratio of 415/430 nm data (Ratio=[(OD415−OD700)/(OD430−OD700)]. The effect at each timepoint was calculated using the ratios from the previous calculation at time 0 and each time point of interest (Effect^time x=Ratio^time x/Ratio^time 0). Percent effect was calculated by comparing the effects of compound versus HbS only with the effects observed by the positive control compound tucaresol (percent effect=[(effect^time x compound−effect^time x HbS)/(effect^time x tucaresol−effect^time x HbS)]×100). Data were reported as the percent effect for a single point. Calculations to determine the concentration of compound for 50% inhibition (IC50 (uM)) of the HbS ‘R’-‘T’ conversion were based on the percent effect at varying compound concentration.

| SMILES | Kd [1] | IC50 (HbS) |
| --- | --- | --- |
| Cc1cc2nc(N)c(O[C@@H](C)c3nc(O)ccc3-n3cccn3)cc2cn1 [Example 46, 6-{(1S)-1-[(2-amino-7-methyl-1,6-naphthyridin-3-yl)oxy]ethyl}-5-(1H-pyrazol-1-yl)pyridin-2-ol] | 0.102 µM | 5.22 µM |
| C[C@H](Oc1cc2ncccc2nc1N)c1nc(O)ccc1-n1cccn1 [Example 47, 6-{(1S)-1-[(2-amino-1,5-naphthyridin-3-yl)oxy]ethyl}-5-(1H-pyrazol-1-yl)pyridin-2-ol] | 0.384 µM | 6.32 µM |
| C[C@H](Oc1cc2ncc(F)cc2nc1N)c1nc(O)ccc1-n1cccn1 [Example 48, 6-{(1S)-1-[(2-amino-7-fluoro-1,5-naphthyridin-3-yl)oxy]ethyl}-5-(1H-pyrazol-1-yl)pyridin-2-ol] | 0.253 µM | 4.71 µM |
| C[C@H](Oc1cc2cc(CO)ccc2nc1N)c1nc(O)ccc1-n1cccn1 [Example 49, 6-[(1S)-1-{[2-amino-6-(hydroxymethyl)quinolin-3-yl]oxy}ethyl]-5-(1H-pyrazol-1-yl)pyridin-2-ol] | 0.178 µM | 6.39 µM |
| C[C@H](Oc1cc2cc(C(C)(C)O)ccc2nc1N)c1nc(O)ccc1-n1cccn1 [Example 50, 6-[(1S)-1-{[2-amino-6-(2-hydroxypropan-2-yl)quinolin-3-yl]oxy}ethyl]-5-(1H-pyrazol-1-yl)pyridin-2-ol] | 1.33 µM | 100 µM |
| C[C@H](Oc1cc2cc([C@@H](C)O)ccc2nc1N)c1nc(O)ccc1-n1cccn1 [Example 51, 6-[(1S)-1-({2-amino-6-[(1R)-1-hydroxyethyl]quinolin-3-yl}oxy)ethyl]-5-(1H-pyrazol-1-yl)pyridin-2-ol] | 6.88 µM | 52.1 µM |
| C[C@H](O)c1ccc2nc(N)c(O[C@@H](C)c3nc(O)ccc3-n3cccn3)cc2c1 [Example 52, 6-[(1S)-1-({2-amino-6-[(1S)-1-hydroxyethyl]quinolin-3-yl}oxy)ethyl]-5-(1H-pyrazol-1-yl)pyridin-2-ol] | 10 µM | 100 µM |
| C[C@H](Oc1cc2cc(F)cc(F)c2nc1N)c1[nH]c(=O)ccc1-n1cccn1 [Example 53, 6-{(1S)-1-[(2-amino-6,8-difluoroquinolin-3-yl)oxy]ethyl}-5-(1H-pyrazol-1-yl)pyridin-2-ol] | 0.016 µM | 4.25 µM |
| Cc1ccc2nc(N)c(O[C@@H](C)c3nc(O)ccc3-n3cccn3)cc2n1 [Example 54, 6-{(1S)-1-[(2-amino-6-methyl-1,5-naphthyridin-3-yl)oxy]ethyl}-5-(1H-pyrazol-1-yl)pyridin-2-ol] | 0.892 µM | 11.2 µM |
| C[C@H](Oc1cc2cc(C(N)=O)ccc2nc1N)c1nc(CO)ccc1-n1cccn1 [Example 55, 2-amino-3-{(1S)-1-[6-(hydroxymethyl)-3-(1H-pyrazol-1-yl)pyridin-2-yl]ethoxy}quinoline-6-carboxamide] | 0.406 µM | 5.71 µM |
| COc1ccc(-n2cccn2)c([C@H](C)Oc2cc3cc(F)cc(F)c3nc2N)n1 [Example 56, 6,8-difluoro-3-{(1S)-1-[6-methoxy-3-(1H-pyrazol-1-yl)pyridin-2-yl]ethoxy}quinolin-2-amine] | 0.053 µM | 5.68 µM |
| COc1ccc(-n2cccn2)c([C@H](C)Oc2cc3cc(F)ccc3nc2N)n1 [Example 57, 6-fluoro-3-{(1S)-1-[6-methoxy-3-(1H-pyrazol-1-yl)pyridin-2-yl]ethoxy}quinolin-2-amine] | 0.184 µM | 4.84 µM |
| C[C@H](Oc1cc2cc(F)c(Cl)cc2nc1N)c1cc2[nH]ncc2cc1-n1cccn1 [Example 60, 7-chloro-6-fluoro-3-{(1S)-1-[5-(1H-pyrazol-1-yl)-1H-indazol-6-yl]ethoxy}quinolin-2-amine] | 0.055 µM | 4.11 µM |
| C[C@H](Oc1cc2cc(F)ccc2nc1N)c1cc2[nH]cnc2cc1-n1cccn1 [Example 63, 6-fluoro-3-{(1S)-1-[5-(1H-pyrazol-1-yl)-1H-benzimidazol-6-yl]ethoxy}quinolin-2-amine] | 0.152 µM | 8.36 µM |
| Cc1nc2cc(-n3cccn3)c([C@H](C)Oc3cc4cc(F)ccc4nc3N)cc2[nH]1 [Example 64, 6-fluoro-3-{(1S)-1-[2-methyl-5-(1H-pyrazol-1-yl)-1H-benzimidazol-6-yl]ethoxy}quinolin-2-amine] | 0.22 µM | 5.73 µM |
| C[C@H](Oc1cc2cc(F)ccc2nc1N)c1cc2c(cnn2CC(=O)O)cc1-n1cccn1 [Example 67, [6-{(1S)-1-[(2-amino-6-fluoroquinolin-3-yl)oxy]ethyl}-5-(1H-pyrazol-1-yl)-1H-indazol-1-yl]acetic Acid] | 0.009 µM | 3.71 µM |
| C[C@H](Oc1cc2cc(F)ccc2nc1N)c1nc2[nH]ncc2cc1-n1cccn1 [Example 68, 6-fluoro-3-{(1S)-1-[5-(1H-pyrazol-1-yl)-1H-pyrazolo[3,4-b]pyridin-6-yl]ethoxy}quinolin-2-amine] | 0.015 µM | 4.61 µM |
| C[C@H](Oc1cc2cc(F)cc(F)c2nc1N)c1cc2c(cnn2CC(=O)O)cc1-n1cccn1 [Example 69, [6-{(1S)-1-[(2-amino-6,8-difluoroquinolin-3-yl)oxy]ethyl}-5-(1H-pyrazol-1-yl)-1H-indazol-1-yl]acetic Acid] | 0.01 µM | 4.67 µM |
| C[C@H](Oc1cc2cc(F)ccc2nc1N)c1cc2c(cnn2CC(N)=O)cc1-n1cccn1 [Example 70, 2-[6-{(1S)-1-[(2-amino-6-fluoroquinolin-3-yl)oxy]ethyl}-5-(1H-pyrazol-1-yl)-1H-indazol-1-yl]acetamide] | 0.013 µM | 4.6 µM |
| C[C@H](Oc1cc2cc(F)ccc2nc1N)c1cc2nn(CC(=O)O)cc2cc1-n1cccn1 [Example 71, [6-{(1S)-1-[(2-amino-6-fluoroquinolin-3-yl)oxy]ethyl}-5-(1H-pyrazol-1-yl)-2H-indazol-2-yl]acetic Acid] | 0.048 µM | 4.61 µM |
| C[C@H](Oc1cc2cc(F)cc(F)c2nc1N)c1cc2c(cnn2CCO)cc1-n1cccn1 [Example 72, 2-[6-{(1S)-1-[(2-amino-6,8-difluoroquinolin-3-yl)oxy]ethyl}-5-(1H-pyrazol-1-yl)-1H-indazol-1-yl]ethanol] | 0.011 µM | 3.03 µM |
| C[C@H](Oc1cc2cc(F)ccc2nc1N)c1cc2c(cnn2CCO)cc1-n1cccn1 [Example 73, 2-[6-{(1S)-1-[(2-amino-6-fluoroquinolin-3-yl)oxy]ethyl}-5-(1H-pyrazol-1-yl)-1H-indazol-1-yl]ethanol] | 0.02 µM | 4.51 µM |
